Patent US20170362283A1, “NISIN-BASED COMPOUNDS AND USE THEREOF IN THE TREATMENT OF BACTERIAL INFECTIONS” (UNIVERSITEIT UTRECHT HOLDING B.V., priority 2015, published 2017)
Like-named read-outs stand apart in the source and are kept apart here.

Columns and labels:
[1] = system: thirty VRE strains
[2] = system: B. subtilis; conditions: duplicate experiments
Method: (§1) Determining the MIC value is a standard technique well known to the skilled person, in particular the MIC value can be measured using method M07-A9 (CLSI standard, January 2012, Vol. 32, No. 2, “Methods for Dilution Antimicrobial Susceptibility Tests for Bacteria That Grow Aerobically”).
(§2) Different microorganisms (from glycerol stock) were plated out on blood agar and incubated at 37° C. for 24 hours. A colony was selected and 2×5 mL of TSB was inoculated. The samples and a sterile control were cultured for 16-20 hours at 37° C. Comparative compound B is nisin acting as a control. […] Comparative compounds A, D and E are also control compounds not part of the present invention.
(§3) The overnight cultures were diluted to 0.5×10^6 CFU in TSB. 50 μL of the bacterial solution was added to each well and the plates were sealed with an adhesive membrane and incubated at 37° C. for 16 hours. The next day, the plates were visually inspected for bacterial growth.

[3] = system: E. coli; conditions: duplicate experiments
Method: as §1, §2, §3

[4] = system: S. aureus; conditions: duplicate experiments
Method: as §1, §2, §3

[5] = system: VRE 155; format: cell-based; conditions: duplicate experiments
Method: as §1
(§4) Different microorganisms (from glycerol stock) were plated out on blood agar and incubated at 37° C. for 24 hours. A colony was selected and 2×5 mL of TSB was inoculated. The samples and a sterile control were cultured for 16-20 hours at 37° C. Comparative compound B is nisin acting as a control. Comparative compound C is vancomycin, also acting as a control. Comparative compounds A, D and E are also control compounds not part of the present invention.
as §3

[6] = system: M. luteus; format: cell-based; conditions: duplicate experiments
Method: as §1, §4, §3

[7] = system: MRSA USA300; format: cell-based, Staphylococcus aureus; conditions: duplicate experiments
Method: as §1, §4, §3

[8] = system: MRSA WKZ2; format: cell-based, Staphylococcus aureus; conditions: duplicate experiments
Method: as §1, §4, §3

[9] = system: erythrocytes; assay: Hemolysis assay; conditions: human erythrocytes, 1 h, at 32 μg/mL
Method: Human whole blood was centrifuged at 600×g for 15 min and levels of plasma and hematocrit were marked on the tube. Plasma was removed and the erythrocytes washed 3× with PBS (centrifuging at 600×g for 15 mins). After discarding the supernatant, the packed cells were stored on ice. 100 μL of the peptides (128 μg/mL in PBS, 2% DMSO) as well as a control solution comprised of 2% DMSO in PBS were added to the top row of a polypropylene, round-bottom 96 well plate and 50 μL of PBS to the rest of the wells. The peptides and the DMSO control solutions were then diluted serially down the rows. 200 μL of the packed cells were added to PBS (10 mL) and 50 μL of this suspension was added to each well. A column with DI water containing 0.1% Triton X-100 was used as the 100% lysis control, and the column containing the serially-diluted PBS (1.0% DMSO) control served as the 0% lysis reference. The cells were incubated at 37° C. for 1 h. After incubation the plates were centrifuged (800×g, 5 min) and 25 μL of the supernatant was added to 100 μL DI water in a flat-bottom plate (polystyrene). The absorption at 414 nm was recorded to measure the amount of free hemoglobin.

vancomycin
MIC ([1]; VRE strain E0013, GBR, vanA): 32 µg/mL | MIC ([1]; VRE strain E0072, NLD, vanA): 8 µg/mL | MIC ([1]; VRE strain E0300, USA, vanA): >128 µg/mL | MIC ([1]; VRE strain E0321, FRA, vanA): >128 µg/mL | MIC ([1]; VRE strain E0333, ISR, vanA): >128 µg/mL | MIC ([1]; VRE strain E0338, ITA, vanA): >128 µg/mL | MIC ([1]; VRE strain E0341, GBR, vanA): 128 µg/mL | MIC ([1]; VRE strain E0506, AUS, vanA): >128 µg/mL | MIC ([1]; VRE strain E0745, NLD, vanA): 64 µg/mL | MIC ([1]; VRE strain E1130, USA, vanA): >128 µg/mL | MIC ([1]; VRE strain E1441, GRC, vanA): 128 µg/mL | MIC ([1]; VRE strain E1679, BRA, vanA): >128 µg/mL | MIC ([1]; VRE strain E1763, BEL, vanA): >128 µg/mL | MIC ([1]; VRE strain E2297, USA, vanA): 128 µg/mL | MIC ([1]; VRE strain E2359, SGP, vanB): <1-1 μg/mL | MIC ([1]; VRE strain E2365, HUN, vanB): <1 µg/mL | MIC ([1]; VRE strain E2373, SRB, vanA): >128 µg/mL | MIC ([1]; VRE strain E6016, LVA, vanA): 128 µg/mL | MIC ([1]; VRE strain E7312, NLD, vanA): 64 µg/mL | MIC ([1]; VRE strain E7314, NLD, vanB): >128 µg/mL | MIC ([1]; VRE strain E7319, NLD, vanA): >128 µg/mL | MIC ([1]; VRE strain E7329, NLD, vanA): <1 µg/mL | MIC ([1]; VRE strain E7401, NLD, vanB): 16 µg/mL | MIC ([1]; VRE strain E7403, NLD, vanB): <1 µg/mL | MIC ([1]; VRE strain E7413, NLD, vanA): >128 µg/mL | MIC ([1]; VRE strain E7424, NLD, vanB): >128 µg/mL | MIC ([1]; VRE strain E7464, NLD, vanB): 2 µg/mL | MIC ([1]; VRE strain E8218, NLD, vanB): 8 µg/mL | MIC ([1]; VRE strain E8235, NLD, vanB): 8 µg/mL | MIC ([1]; VRE strain E8237, NLD, vanA): 128 µg/mL | MIC50 ([1]; thirty VRE strains): MIC50 = 128 μg/mL | MIC90 ([1]; thirty VRE strains): MIC90 = >128 μg/mL | MIC values B. subtilis [2]: 0.03 to 0.06 µg/mL | MIC values E. coli [3]: >10 µg/mL | MIC values S. aureus [4]: 0.25 to 0.31 µg/mL | MIC values VRE 155 [5]: >10 µg/mL | MIC values M. luteus [6]: 0.03 µg/mL | MIC values MRSA USA300 [7]: 0.625 µg/mL | MIC values MRSA WKZ2 [8]: 0.625 µg/mL | hemolysis [9]: negligible hemolysis
